Measured values published in US9617276B2, “Compounds and methods for treating AIDS and HIV infections” (priority 2009, dated 2017).

Key:
[1] = target: T1, HIV-1 protease (Human immunodeficiency virus type 1 group M subtype B, UniProt P04585); experiment: HIV protease enzyme inhibition, fluorometric assay of Toth and Marshall; assay type: biochemical; conditions: Ki
T1 construct: A simple, continuous fluorometric assay for HIV protease
Procedure: The inhibitory potencies of acyclic and cyclic inhibitors were measured by the assay protocol of Toth and Marshall (Toth, M. V.; Marshall, G. R. A simple, continuous fluorometric assay for HIV protease. Int. J. Pep. Protien Res. 1990, 36, 544-55).

[2] = system: MT-2 cells; experiment: cytotoxicity CC50; assay type: cell-based, Human; conditions: MT-2 cells

Row | Structure (SMILES) | Ki [1] [nM] | Ki ([1]; Table 2) [nM] | CC50 [2] [µM]
1 | COc1ccc2c(c1)OCCCC=CCCCCN(CC(O)C(Cc1ccccc1)NC(=O)OC1COC3OCCC13)S2(=O)=O (stereo not drawn) [Compound 14b] | < 0.7 | < 1 | 
2 | CCC[C@@]1(CCc2ccccc2)CC(O)=C([C@H](CC)c2cccc(NS(=O)(=O)c3ccc(C(F)(F)F)cn3)c2)C(=O)O1 [TPV, Tipranavir] |  |  | 54.1 ± 2.1
